In patent US20250304644A1, “PEPTIDES TRIPLE AGONISTS OF GIP, GLP-1 AND GLP-2” (BAINAN BIOTECH APS, priority 2021, published 2025):
Where a SMILES comes first, the peptide text is derived from it. [ ]: non-standard residue; d: D form. The star is where a group is joined. Decanoyl = CCCCCCCCCC(=O)*; Aib = CC(C)(N)C(=O)O

What was measured:
Type in all cases: cell-based
human GLP-1R = molecular target: T1, human GLP-1R (Homo sapiens, UniProt P43220); assay: cAMP assay (HitHunter) in transiently transfected COS-7 cells expressing human GLP-1R; settings: for Emax: COS-7, normalized to highest concentration of the endogenous ligand, read-out: Efficacy GLP-1R (Emax); for EC50: cAMP, COS-7 cells, human GLP-1R, read-out: EC50 (nM) GLP-1R
T1 construct: host or cells: COS-7
T1 sequence (P43220 24-463): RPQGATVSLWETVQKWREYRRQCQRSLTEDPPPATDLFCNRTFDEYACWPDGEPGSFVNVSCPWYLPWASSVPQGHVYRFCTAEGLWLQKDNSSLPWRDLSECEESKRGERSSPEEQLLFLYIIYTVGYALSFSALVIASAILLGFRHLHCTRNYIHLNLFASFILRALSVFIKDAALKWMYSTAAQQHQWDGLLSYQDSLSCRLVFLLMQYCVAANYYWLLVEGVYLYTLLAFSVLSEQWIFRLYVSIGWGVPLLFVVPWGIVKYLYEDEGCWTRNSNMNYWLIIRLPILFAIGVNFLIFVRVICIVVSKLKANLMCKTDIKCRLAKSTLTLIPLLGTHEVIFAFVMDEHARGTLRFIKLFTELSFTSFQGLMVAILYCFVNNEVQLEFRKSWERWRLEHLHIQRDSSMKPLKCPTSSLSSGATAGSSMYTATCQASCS
Description: (§1) The next day the assay was initiated by washing with HEPES buffered saline (HBS) and followed by an incubation step with assay buffer (HBS added 1 mM isobutyl-1-methylxanthine (IBMX)) for 30 min at 37° C. The ligands were then added and incubated for an additional 30 min at 37° C. After ligand incubation, the HitHunter® CAMP assay (Eurofins DiscoverX, Fremont, […] USA) was carried out according to the manufacturer's instructions. […] The potencies (EC50 values) were determined by nonlinear regression using GraphPad Prism 9 (San Diego, California, USA). Sigmoid curves were fitted logistically. The efficacies (Emax values) were determined by normalization to the highest concentration applied of the endogenous ligand for each receptor.

human GIPR = molecular target: T2, human GIPR (Homo sapiens, UniProt P48546); assay: cAMP assay (HitHunter) in transiently transfected COS-7 cells expressing human GIPR; settings: for Emax: COS-7, normalized to highest concentration of the endogenous ligand, read-out: Efficacy GIPR (Emax); for EC50: cAMP, COS-7 cells, human GIPR
T2 construct: host or cells: COS-7
T2 sequence (P48546 22-466): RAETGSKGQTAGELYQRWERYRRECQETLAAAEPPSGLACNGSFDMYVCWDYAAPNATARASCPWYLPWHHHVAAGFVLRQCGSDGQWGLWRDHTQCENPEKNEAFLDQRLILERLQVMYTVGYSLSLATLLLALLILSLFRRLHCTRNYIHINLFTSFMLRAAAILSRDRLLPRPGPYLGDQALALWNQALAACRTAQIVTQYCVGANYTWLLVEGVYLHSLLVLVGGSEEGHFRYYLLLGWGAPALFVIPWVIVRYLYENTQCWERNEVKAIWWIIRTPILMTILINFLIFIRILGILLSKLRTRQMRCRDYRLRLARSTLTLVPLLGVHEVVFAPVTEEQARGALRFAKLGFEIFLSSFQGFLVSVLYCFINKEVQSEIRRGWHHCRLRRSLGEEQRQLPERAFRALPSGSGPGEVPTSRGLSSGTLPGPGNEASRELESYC
Description: as §1

human GLP-2R = molecular target: T3, human GLP-2R (Homo sapiens, UniProt O95838); assay: cAMP assay (HitHunter) in transiently transfected COS-7 cells expressing human GLP-2R; settings: for Emax: COS-7, normalized to highest concentration of the endogenous ligand, read-out: Efficacy GLP-2R (Emax)
T3 construct: host or cells: COS-7
T3 sequence (O95838 1-553): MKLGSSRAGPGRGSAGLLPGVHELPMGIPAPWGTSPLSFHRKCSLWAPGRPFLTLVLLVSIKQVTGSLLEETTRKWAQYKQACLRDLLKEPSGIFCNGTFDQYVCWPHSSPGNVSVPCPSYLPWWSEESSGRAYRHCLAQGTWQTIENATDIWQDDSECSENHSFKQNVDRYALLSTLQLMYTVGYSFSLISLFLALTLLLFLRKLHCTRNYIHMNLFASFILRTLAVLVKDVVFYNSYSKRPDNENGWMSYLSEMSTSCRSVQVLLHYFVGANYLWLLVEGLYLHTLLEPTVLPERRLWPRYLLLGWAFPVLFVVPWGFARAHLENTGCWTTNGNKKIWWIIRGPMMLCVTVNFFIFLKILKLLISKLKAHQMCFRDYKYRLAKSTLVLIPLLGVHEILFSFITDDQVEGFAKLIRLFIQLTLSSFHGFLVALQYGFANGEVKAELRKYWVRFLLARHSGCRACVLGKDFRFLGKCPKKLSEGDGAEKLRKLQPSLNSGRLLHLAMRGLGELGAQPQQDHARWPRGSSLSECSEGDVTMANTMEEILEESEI
Description: as §1

Row | Structure (SMILES) | Emax (human GLP-1R) | Emax (human GIPR) | Emax (human GLP-2R) | EC50 (human GLP-1R) | EC50 (human GIPR) | EC50 (human GLP-2R; cAMP, COS-7 cells, human GLP-2R, read-out: EC50 (nM) GLP-2R)
1 | CCCCCCCCCC(=O)NCCCC[C@H](NC(=O)[C@@H](NC(=O)[C@@H](NC(=O)[C@H](CCCCN)NC(=O)[C@@H](NC(=O)[C@H](CCC(N)=O)NC(=O)[C@@H](NC(=O)[C@H](CC(C)C)NC(=O)[C@H](Cc1c[nH]c2ccccc12)NC(=O)[C@H](CC(N)=O)NC(=O)[C@@H](NC(=O)[C@H](Cc1ccccc1)NC(=O)[C@H](CC(=O)O)NC(=O)[C@H](CCCNC(=N)N)NC(=O)[C@H](C)NC(=O)[C@H](C)NC(=O)[C@H](CC(C)C)NC(=O)[C@H](CC(N)=O)NC(=O)[C@H](CC(=O)O)NC(=O)[C@H](CC(C)C)NC(=O)[C@@H](NC(=O)[C@@H](NC(=O)[C@H](CO)NC(=O)[C@H](Cc1ccc(O)cc1)NC(=O)[C@H](CC(=O)O)NC(=O)[C@H](CO)NC(=O)[C@@H](NC(=O)[C@H](Cc1ccccc1)NC(=O)[C@@H](NC(=O)CNC(=O)[C@H](CC(=O)O)NC(=O)C(C)(C)NC(=O)[C@@H](N)Cc1c[nH]cn1)[C@@H](C)O)[C@@H](C)CC)[C@@H](C)O)[C@@H](C)CC)[C@@H](C)CC)[C@@H](C)CC)[C@@H](C)O)[C@@H](C)CC)[C@@H](C)O)C(N)=O (single isomer, unassigned) [Compound 6] | 96% | 97% | 99% |  |  | 
2 | CCCCCCCCCC(=O)NCCCC[C@H](NC(=O)[C@@H](NC(=O)[C@@H](NC(=O)[C@H](CCCCN)NC(=O)[C@@H](NC(=O)[C@H](CCC(N)=O)NC(=O)[C@@H](NC(=O)[C@H](CC(C)C)NC(=O)[C@H](Cc1c[nH]c2ccccc12)NC(=O)[C@H](CC(N)=O)NC(=O)[C@@H](NC(=O)[C@H](Cc1ccccc1)NC(=O)[C@H](CC(=O)O)NC(=O)[C@H](CCCNC(=N)N)NC(=O)[C@H](C)NC(=O)[C@H](C)NC(=O)[C@H](CC(C)C)NC(=O)[C@H](CC(N)=O)NC(=O)[C@H](CC(=O)O)NC(=O)[C@H](CC(C)C)NC(=O)[C@@H](NC(=O)[C@@H](NC(=O)[C@H](C)NC(=O)[C@H](Cc1ccc(O)cc1)NC(=O)[C@H](CC(=O)O)NC(=O)[C@H](CO)NC(=O)[C@@H](NC(=O)[C@H](Cc1ccccc1)NC(=O)[C@@H](NC(=O)CNC(=O)[C@H](CC(=O)O)NC(=O)C(C)(C)NC(=O)[C@@H](N)Cc1c[nH]cn1)[C@@H](C)O)[C@@H](C)CC)[C@@H](C)O)[C@@H](C)CC)[C@@H](C)CC)[C@@H](C)CC)[C@@H](C)O)[C@@H](C)CC)[C@@H](C)O)C(=O)O [Compound 3] (H-H[Aib]DGTFISDYATILDNLAARDFINWLIQTKITK(Decanoyl)-OH; N-terminus assumed) | 94% | 80% | 101% | 1.78 nM | 0.631 nM | 
3 | CCCCCCCCCC(=O)NCCCC[C@H](NC(=O)[C@@H](NC(=O)[C@@H](NC(=O)[C@H](CCCCN)NC(=O)[C@@H](NC(=O)[C@H](CCC(N)=O)NC(=O)[C@@H](NC(=O)[C@H](CC(C)C)NC(=O)[C@H](Cc1c[nH]c2ccccc12)NC(=O)[C@H](CC(N)=O)NC(=O)[C@@H](NC(=O)[C@H](Cc1ccccc1)NC(=O)[C@H](CC(=O)O)NC(=O)[C@H](CCCNC(=N)N)NC(=O)[C@H](C)NC(=O)[C@H](C)NC(=O)[C@H](CC(C)C)NC(=O)[C@H](CC(C)C)NC(=O)[C@H](CC(=O)O)NC(=O)[C@H](CC(C)C)NC(=O)[C@@H](NC(=O)[C@@H](NC(=O)[C@H](CO)NC(=O)[C@H](Cc1ccc(O)cc1)NC(=O)[C@H](CC(=O)O)NC(=O)[C@H](CO)NC(=O)[C@@H](NC(=O)[C@H](Cc1ccccc1)NC(=O)[C@@H](NC(=O)CNC(=O)[C@H](CC(=O)O)NC(=O)C(C)(C)NC(=O)[C@@H](N)Cc1c[nH]cn1)[C@@H](C)O)[C@@H](C)CC)[C@@H](C)O)[C@@H](C)CC)[C@@H](C)CC)[C@@H](C)CC)[C@@H](C)O)[C@@H](C)CC)[C@@H](C)O)C(N)=O [Compound 4] (H-H[Aib]DGTFISDYSTILDLLAARDFINWLIQTKITK(Decanoyl)-NH2) | 82% | 102% | 92% | 25.1 nM | 1.12 nM | 
4 | CCCCCCCCCC(=O)NCCCC[C@H](NC(=O)[C@@H](NC(=O)[C@@H](NC(=O)[C@H](CCCCN)NC(=O)[C@@H](NC(=O)[C@H](CCC(N)=O)NC(=O)[C@@H](NC(=O)[C@H](CC(C)C)NC(=O)[C@H](Cc1c[nH]c2ccccc12)NC(=O)[C@H](CC(N)=O)NC(=O)[C@@H](NC(=O)[C@H](Cc1ccccc1)NC(=O)[C@H](CC(=O)O)NC(=O)[C@H](CCCNC(=N)N)NC(=O)[C@H](C)NC(=O)[C@H](C)NC(=O)[C@H](CC(C)C)NC(=O)[C@H](C)NC(=O)[C@H](CC(=O)O)NC(=O)[C@H](CC(C)C)NC(=O)[C@@H](NC(=O)[C@@H](NC(=O)[C@H](CO)NC(=O)[C@H](Cc1ccc(O)cc1)NC(=O)[C@H](CC(=O)O)NC(=O)[C@H](CO)NC(=O)[C@@H](NC(=O)[C@H](Cc1ccccc1)NC(=O)[C@@H](NC(=O)CNC(=O)[C@H](CC(=O)O)NC(=O)C(C)(C)NC(=O)[C@@H](N)Cc1c[nH]cn1)[C@@H](C)O)[C@@H](C)CC)[C@@H](C)O)[C@@H](C)CC)[C@@H](C)CC)[C@@H](C)CC)[C@@H](C)O)[C@@H](C)CC)[C@@H](C)O)C(N)=O [Compound 5] (H-H[Aib]DGTFISDYSTILDALAARDFINWLIQTKITK(Decanoyl)-NH2) | 105% | 111% | 110% | 1.78 nM | 0.158 nM | 2 nM
5 | CCCCCCCCCC(=O)NCCCC[C@H](NC(=O)[C@@H](NC(=O)[C@@H](NC(=O)[C@H](CCCCN)NC(=O)[C@@H](NC(=O)[C@H](CCC(N)=O)NC(=O)[C@@H](NC(=O)[C@H](CC(C)C)NC(=O)[C@H](Cc1c[nH]c2ccccc12)NC(=O)[C@H](CC(N)=O)NC(=O)[C@@H](NC(=O)[C@H](Cc1ccccc1)NC(=O)[C@H](CC(=O)O)NC(=O)[C@H](CCCNC(=N)N)NC(=O)[C@H](C)NC(=O)[C@H](C)NC(=O)[C@H](CC(C)C)NC(=O)[C@H](CC(N)=O)NC(=O)[C@H](CCC(=O)O)NC(=O)[C@H](CC(C)C)NC(=O)[C@@H](NC(=O)[C@@H](NC(=O)[C@H](CO)NC(=O)[C@H](Cc1ccc(O)cc1)NC(=O)[C@H](CC(=O)O)NC(=O)[C@H](CO)NC(=O)[C@@H](NC(=O)[C@H](Cc1ccccc1)NC(=O)[C@@H](NC(=O)CNC(=O)[C@H](CC(=O)O)NC(=O)C(C)(C)NC(=O)[C@@H](N)Cc1c[nH]cn1)[C@@H](C)O)[C@@H](C)CC)[C@@H](C)O)[C@@H](C)CC)[C@@H](C)CC)[C@@H](C)CC)[C@@H](C)O)[C@@H](C)CC)[C@@H](C)O)C(N)=O [Compound 7] (H-H[Aib]DGTFISDYSTILENLAARDFINWLIQTKITK(Decanoyl)-NH2) | 95% | 96% | 97% | 2.82 nM | 0.794 nM | 
6 | CCCCCCCCCC(=O)NCCCC[C@H](NC(=O)[C@@H](NC(=O)[C@@H](NC(=O)[C@H](CCCCN)NC(=O)[C@@H](NC(=O)[C@H](CCC(N)=O)NC(=O)[C@@H](NC(=O)[C@H](CC(C)C)NC(=O)[C@H](Cc1c[nH]c2ccccc12)NC(=O)[C@H](CC(N)=O)NC(=O)[C@@H](NC(=O)[C@H](Cc1ccccc1)NC(=O)[C@H](CC(=O)O)NC(=O)[C@H](CCCNC(=N)N)NC(=O)[C@H](C)NC(=O)[C@H](C)NC(=O)[C@@H](NC(=O)[C@H](CC(N)=O)NC(=O)[C@H](CC(=O)O)NC(=O)[C@H](CC(C)C)NC(=O)[C@@H](NC(=O)[C@@H](NC(=O)[C@H](CO)NC(=O)[C@H](Cc1ccc(O)cc1)NC(=O)[C@H](CC(=O)O)NC(=O)[C@H](CO)NC(=O)[C@@H](NC(=O)[C@H](Cc1ccccc1)NC(=O)[C@@H](NC(=O)CNC(=O)[C@H](CC(=O)O)NC(=O)C(C)(C)NC(=O)[C@@H](N)Cc1c[nH]cn1)[C@@H](C)O)[C@@H](C)CC)[C@@H](C)O)[C@@H](C)CC)[C@@H](C)CC)[C@@H](C)CC)[C@@H](C)CC)[C@@H](C)O)[C@@H](C)CC)[C@@H](C)O)C(N)=O [Compound 15] (H-H[Aib]DGTFISDYSTILDNIAARDFINWLIQTKITK(Decanoyl)-NH2; N-terminus assumed) | 90% | 98% |  |  | 0.794 nM | 
